± gives the expanded uncertainty stated by the source.
Experiments:
[1] = 101.33 kPa, Liquid
[2] = refractive index (Na D-line) (dimensionless); settings: 101.33 kPa, Liquid, Standard Abbe refractometry
[3] = xn = mol fraction of the nth substance listed; settings: 101 kPa, Liquid
[4] = excess molar enthalpy (molar enthalpy of mixing); xn = mol fraction of the nth substance listed; settings: 101 kPa, Liquid

CCCC[n+]1cccc(C)c1.F[B-](F)(F)F [1-butyl-3-methylpyridinium tetrafluoroborate]
Settings | mass density, [1] [kg/m3] | refractive index, [2]
298.15 K | 1182.19 ± 0.89 | 1.4473 ± 0.0005
318.15 K | 1168.31 ± 0.86 | 1.4422 ± 0.0005

CCCC[n+]1cccc(C)c1.F[B-](F)(F)F [1-butyl-3-methylpyridinium tetrafluoroborate] + CCCCO
Settings | excess molar enthalpy [kcal/mol] | mass density [kg/m3]
[3], 298.15 K, x1 = 0.0166 | – | 819.7 ± 0.7
[3], 298.15 K, x1 = 0.7641 | – | 1136.6 ± 0.8
[3], 298.15 K, x1 = 0.8166 | – | 1147.7 ± 0.8
[3], 298.15 K, x1 = 0.8558 | – | 1155.7 ± 0.8
[3], 298.15 K, x1 = 0.904 | – | 1165.1 ± 0.9
[3], 318.15 K, x1 = 0.0191 | – | 805.5 ± 0.7
[3], 318.15 K, x1 = 0.6961 | – | 1107.5 ± 0.8
[3], 318.15 K, x1 = 0.7777 | – | 1125.9 ± 0.8
[3], 318.15 K, x1 = 0.8535 | – | 1141.6 ± 0.9
[3], 318.15 K, x1 = 0.9084 | – | 1152.1 ± 0.9
[3], 318.15 K, x1 = 0.9479 | – | 1159.4 ± 0.9
[4], 318.15 K, x1 = 0.0098 | 0.0361 ± 0.00143 | –
[4], 318.15 K, x1 = 0.025 | 0.0684 ± 0.00215 | –
[4], 318.15 K, x1 = 0.0464 | 0.138 ± 0.00359 | –
[4], 318.15 K, x1 = 0.3603 | 0.681 ± 0.0141 | –
[4], 318.15 K, x1 = 0.3932 | 0.684 ± 0.0141 | –
[4], 318.15 K, x1 = 0.445 | 0.677 ± 0.0141 | –
[4], 318.15 K, x1 = 0.5101 | 0.652 ± 0.0136 | –
[4], 318.15 K, x1 = 0.5852 | 0.591 ± 0.0122 | –
[4], 318.15 K, x1 = 0.6705 | 0.503 ± 0.0105 | –
[4], 318.15 K, x1 = 0.7667 | 0.378 ± 0.00813 | –
[4], 318.15 K, x1 = 0.8531 | 0.264 ± 0.00574 | –
[4], 318.15 K, x1 = 0.9346 | 0.125 ± 0.00311 | –

CCCC[n+]1cccc(C)c1.F[B-](F)(F)F [1-butyl-3-methylpyridinium tetrafluoroborate] + CCCO
Settings | excess molar enthalpy [kcal/mol] | mass density [kg/m3]
[3], 298.15 K, x1 = 0.016 | – | 816.7 ± 0.7
[3], 298.15 K, x1 = 0.4528 | – | 1066.5 ± 0.6
[3], 298.15 K, x1 = 0.494 | – | 1079.3 ± 0.7
[3], 298.15 K, x1 = 0.5262 | – | 1088.6 ± 0.7
[3], 298.15 K, x1 = 0.5959 | – | 1106.9 ± 0.7
[3], 298.15 K, x1 = 0.6934 | – | 1129.5 ± 0.8
[3], 298.15 K, x1 = 0.7543 | – | 1141.9 ± 0.8
[3], 298.15 K, x1 = 0.7993 | – | 1150.4 ± 0.8
[3], 298.15 K, x1 = 0.8582 | – | 1160.4 ± 0.8
[3], 298.15 K, x1 = 0.8962 | – | 1166.6 ± 0.9
[3], 318.15 K, x1 = 0.0143 | – | 798.4 ± 0.8
[3], 318.15 K, x1 = 0.0249 | – | 808.8 ± 0.8
[3], 318.15 K, x1 = 0.0477 | – | 830.6 ± 0.8
[3], 318.15 K, x1 = 0.1003 | – | 873.4 ± 0.7
[3], 318.15 K, x1 = 0.1222 | – | 890.6 ± 0.7
[3], 318.15 K, x1 = 0.1492 | – | 909.3 ± 0.6
[3], 318.15 K, x1 = 0.2 | – | 940.8 ± 0.6
[3], 318.15 K, x1 = 0.2295 | – | 957.5 ± 0.5
[3], 318.15 K, x1 = 0.3112 | – | 997.8 ± 0.5
[3], 318.15 K, x1 = 0.4002 | – | 1033.6 ± 0.5
[3], 318.15 K, x1 = 0.4285 | – | 1043.6 ± 0.6
[3], 318.15 K, x1 = 0.4635 | – | 1055.3 ± 0.6
[3], 318.15 K, x1 = 0.5638 | – | 1084.7 ± 0.7
[3], 318.15 K, x1 = 0.6072 | – | 1095.8 ± 0.7
[3], 318.15 K, x1 = 0.6405 | – | 1103.5 ± 0.8
[3], 318.15 K, x1 = 0.7096 | – | 1118.9 ± 0.8
[3], 318.15 K, x1 = 0.8001 | – | 1136.9 ± 0.9
[3], 318.15 K, x1 = 0.8522 | – | 1145.7 ± 0.9
[3], 318.15 K, x1 = 0.9028 | – | 1154.2 ± 0.9
[4], 298.15 K, x1 = 0.0139 | 0.039 ± 0.00143 | –
[4], 298.15 K, x1 = 0.0242 | 0.0564 ± 0.00191 | –
[4], 298.15 K, x1 = 0.0278 | 0.0681 ± 0.00191 | –
[4], 298.15 K, x1 = 0.3397 | 0.56 ± 0.0117 | –
[4], 298.15 K, x1 = 0.3707 | 0.56 ± 0.0117 | –
[4], 298.15 K, x1 = 0.4045 | 0.552 ± 0.0115 | –
[4], 298.15 K, x1 = 0.4278 | 0.544 ± 0.0115 | –
[4], 298.15 K, x1 = 0.4642 | 0.531 ± 0.011 | –
[4], 298.15 K, x1 = 0.498 | 0.506 ± 0.0105 | –
[4], 298.15 K, x1 = 0.5458 | 0.47 ± 0.0098 | –
[4], 298.15 K, x1 = 0.5983 | 0.416 ± 0.00884 | –
[4], 298.15 K, x1 = 0.6621 | 0.364 ± 0.00765 | –
[4], 298.15 K, x1 = 0.7278 | 0.298 ± 0.00645 | –
[4], 298.15 K, x1 = 0.7939 | 0.229 ± 0.00502 | –
[4], 298.15 K, x1 = 0.8653 | 0.164 ± 0.00382 | –
[4], 298.15 K, x1 = 0.9335 | 0.0973 ± 0.00239 | –
[4], 318.15 K, x1 = 0.0232 | 0.0997 ± 0.00263 | –
[4], 318.15 K, x1 = 0.052 | 0.185 ± 0.0043 | –
[4], 318.15 K, x1 = 0.0852 | 0.276 ± 0.00598 | –
[4], 318.15 K, x1 = 0.1233 | 0.371 ± 0.00789 | –
[4], 318.15 K, x1 = 0.1608 | 0.46 ± 0.0098 | –
[4], 318.15 K, x1 = 0.2011 | 0.534 ± 0.0115 | –
[4], 318.15 K, x1 = 0.2044 | 0.552 ± 0.0117 | –
[4], 318.15 K, x1 = 0.2311 | 0.583 ± 0.0122 | –
[4], 318.15 K, x1 = 0.2591 | 0.611 ± 0.0127 | –
[4], 318.15 K, x1 = 0.2896 | 0.634 ± 0.0131 | –
[4], 318.15 K, x1 = 0.3223 | 0.652 ± 0.0136 | –
[4], 318.15 K, x1 = 0.3585 | 0.663 ± 0.0136 | –
[4], 318.15 K, x1 = 0.3982 | 0.664 ± 0.0139 | –
[4], 318.15 K, x1 = 0.4404 | 0.655 ± 0.0136 | –
[4], 318.15 K, x1 = 0.4891 | 0.634 ± 0.0131 | –
[4], 318.15 K, x1 = 0.5441 | 0.598 ± 0.0124 | –
[4], 318.15 K, x1 = 0.6073 | 0.537 ± 0.0112 | –
[4], 318.15 K, x1 = 0.674 | 0.457 ± 0.00956 | –
[4], 318.15 K, x1 = 0.7504 | 0.361 ± 0.00765 | –
[4], 318.15 K, x1 = 0.8323 | 0.252 ± 0.0055 | –
[4], 318.15 K, x1 = 0.9131 | 0.143 ± 0.00335 | –

Source: the NIST ThermoML archive (doi:10.1021/je700294p)
